Tests used:
[1] = tested on: Alternaria alternata; test: Antifungal activity against Alternaria alternata assessed as inhibition of mycelial growth at 200 ppm at 21 +/- 1 degC measured after 5 days; assay type: functional; conditions: 120 h, read-out: GI
[2] = tested on: Botrytis cinerea; test: Antifungal activity against Botryotinia fuckeliana assessed as inhibition of mycelial growth at 20 ppm at 21 +/- 1 degC measured after 3 days; assay type: functional; conditions: 72 h, read-out: GI
[3] = tested on: Botrytis cinerea; test: Antifungal activity against Botryotinia fuckeliana assessed as inhibition of mycelial growth at 200 ppm at 21 +/- 1 degC measured after 3 days; assay type: functional; conditions: 72 h, read-out: GI
[4] = tested on: Alternaria alternata; test: Antifungal activity against Alternaria alternata assessed as inhibition of mycelial growth at 20 ppm at 21 +/- 1 degC measured after 5 days; assay type: functional; conditions: 120 h, read-out: GI
[5] = Octanol-water partition coefficient, log P of the compound; assay type: physicochemical
[6] = Lipophilicity, log K of the compound in water; assay type: physicochemical; conditions: buffer
[7] = tested on: Phytophthora cactorum; test: Antifungal activity against Phytophthora cactorum assessed as inhibition of mycelial growth at 20 ppm at 21 +/- 1 degC measured after 5 days; assay type: functional; conditions: 120 h, read-out: GI
[8] = tested on: Phytophthora cactorum; test: Antifungal activity against Phytophthora cactorum assessed as inhibition of mycelial growth at 200 ppm at 21 +/- 1 degC measured after 5 days; assay type: functional; conditions: 120 h, read-out: GI
[9] = tested on: Fusarium culmorum; test: Antifungal activity against Fusarium culmorum assessed as inhibition of mycelial growth at 20 ppm at 21 +/- 1 degC measured after 5 days; assay type: functional; conditions: 120 h, read-out: GI
[10] = tested on: Fusarium culmorum; test: Antifungal activity against Fusarium culmorum assessed as inhibition of mycelial growth at 200 ppm at 21 +/- 1 degC measured after 5 days; assay type: functional; conditions: 120 h, read-out: GI
[11] = tested on: Rhizoctonia solani; test: Antifungal activity against Rhizoctonia solani assessed as inhibition of mycelial growth at 20 ppm at 21 +/- 1 degC measured after 4 days; assay type: functional; conditions: 96 h, read-out: GI
[12] = tested on: Rhizoctonia solani; test: Antifungal activity against Rhizoctonia solani assessed as inhibition of mycelial growth at 200 ppm at 21 +/- 1 degC measured after 4 days; assay type: functional; conditions: 96 h, read-out: GI

SMILES | logP [5] | logKw [6] | inhibition of growth at 200 ppm [1] [%] | inhibition of growth at 20 ppm [2] [%] | inhibition of growth at 200 ppm [3] [%] | inhibition of growth at 20 ppm [4] [%] | inhibition of growth at 20 ppm [7] [%] | inhibition of growth at 200 ppm [8] [%] | inhibition of growth at 20 ppm [9] [%] | inhibition of growth at 200 ppm [10] [%] | inhibition of growth at 20 ppm [11] [%] | inhibition of growth at 200 ppm [12] [%]
Cc1cc(NC(=S)c2ccc(O)cc2O)ccc1N1C(=O)c2ccc(Cl)cc2C1=O | 4.57 | 3.63 | 21 | 0 | 0 | 0 | 0 | 0 | 0 | 21 | 0 | 0
CCN(C(=S)c1ccc(O)cc1O)c1cccc2ccccc12 | 5.03 | 5.09 | 21 | 0 | 0 | 0 | 0 | 21 | 0 | 21 | 0 | 0
COc1ccc(NC(=S)c2ccc(O)cc2O)cc1O | 2.39 | 2.52 | 51 | 0 | 51 | 0 | 0 | 21 | 0 | 51 | 0 | 51
C=C(C)c1ccccc1NC(=S)c1ccc(O)cc1O | 4.27 | 4.55 | 81 | 51 | 81 | 51 | 51 | 81 | 51 | 81 | 51 | 81
Oc1ccc(C(=S)Nc2cc(C(F)(F)F)cc(C(F)(F)F)c2)c(O)c1 | 4.75 | 6.06 | 81 | 51 | 81 | 51 | 51 | 81 | 51 | 81 | 21 | 81
Oc1ccc(C(=S)Nc2cccc3c2CCCC3)c(O)c1 | 4.22 | 3.56 | 81 | 51 | 81 | 51 | 51 | 81 | 51 | 81 | 51 | 81
Oc1ccc(C(=S)Nc2ccccc2-n2cccc2)c(O)c1 | 3.29 | 3.59 | 81 | 21 | 81 | 21 | 21 | 81 | 51 | 81 | 51 | 81
Oc1ccc(C(=S)Nc2ccc(N3CCOCC3)cc2)c(O)c1 | 2.79 | 2.49 | 0 | 0 | 21 | 0 | 0 | 21 | 0 | 21 | 0 | 0
COC(=O)Nc1nc2ccccc2[nH]1 [CARBENDAZIM] | – | – | – | – | – | – | 81 | 81 | 81 | 81 | 81 | 81
CCCN(CCOc1c(Cl)cc(Cl)cc1Cl)C(=O)n1ccnc1 [PROCHLORAZ] | – | – | 81 | – | – | 81 | 81 | 81 | 81 | 81 | – | –
CC12CC1(C)C(=O)N(c1cc(Cl)cc(Cl)c1)C2=O (stereo not drawn) [PROCYMIDONE] | – | – | 81 | 81 | 81 | 81 | – | – | – | – | – | –

More lines, main results first:

logP [5] | logKw [6] | SMILES | inhibition of growth at 200 ppm [1] [%] | inhibition of growth at 20 ppm [2] [%] | inhibition of growth at 200 ppm [3] [%] | inhibition of growth at 20 ppm [4] [%] | inhibition of growth at 20 ppm [7] [%] | inhibition of growth at 200 ppm [8] [%] | inhibition of growth at 20 ppm [9] [%] | inhibition of growth at 200 ppm [10] [%] | inhibition of growth at 20 ppm [11] [%] | inhibition of growth at 200 ppm [12] [%]
– | 3.3 | Oc1ccc(C(=S)N(c2ccccc2)c2nnns2)c(O)c1 | 81 | 51 | 81 | 51 | 21 | 81 | 21 | 81 | 21 | 81
4.56 | 3.96 | Oc1ccc(C(=S)N(Cc2ccccc2)c2ccccn2)c(O)c1 | 21 | 0 | 51 | 0 | 0 | 21 | 0 | 21 | 0 | 21
3.43 | 3.96 | O=[N+]([O-])c1cc(NC(=S)c2ccc(O)cc2O)ccc1F | 81 | 21 | 81 | 21 | 21 | 81 | 21 | 81 | 51 | 81
4.12 | 4.28 | O=C(c1ccccc1)c1ccc(NC(=S)c2ccc(O)cc2O)cc1 | 51 | 0 | 51 | 0 | 21 | 51 | 0 | 51 | 0 | 51
4.45 | 2.99 | Oc1ccc(C(=S)Nc2nc(=S)ss2)c(O)c1 | 81 | 51 | 81 | 21 | 51 | 81 | 21 | 81 | 21 | 81
3.89 | 4.87 | Cc1ccc2sc(-c3ccc(NC(=S)c4ccc(O)cc4O)cc3)nc2c1 | 21 | 0 | 0 | 0 | 0 | 0 | 0 | 21 | 0 | 0
